Data: patent US10537541B2, “Treatment of focal segmental glomerular sclerosis (FSGS) using therapeutically effective oral doses of 10-nitro-9(E)-octadec-9-enoic acid” (Complexa, Inc., priority 2015, dated 2020)

Experiments:
[1] = system: db/db model; settings: given by infusion; cited from earlier work
[2] = system: deoxycorticosterone acetate (DOCA)/salt-induced model of FSGS; assay: DOCA salt study: histological assessment of kidney; format: in vivo, mice (129/sv strain); settings: DOCA/salt mice, 4 weeks
Method: (§1) Induction of model: Male mice (129/sv strain) were purchased from Taconic Labs. The animals were uninephrectomized (Unx) at 6 weeks of age by the vendor and shipped one week after surgery. At 2 weeks post Unx, a DOCA or placebo pellet (21-day release pellets, 50 mg/pellet, Innovative Research of America, Sarasota, Fla.) was implanted s.c. All mice were then placed on a semisynthetic diet which contained a moderate fat content and a low phytoestrogen/anti-oxidant level, which approximates a normal human diet (4). A second DOCA or placebo pellet was implanted three weeks later.
(§2) Treatment: Mice were treated with placebo, 10-nitro-9(E)-octadec-9-enoic acid at a dose of 2.5 and 12.5 mg/kg, or enalapril (standard of care) for 4 weeks by oral gavage starting 2 weeks after the first DOCA implantation. One percent NaCl in tap water was given to each group except the sham control group. Body weight was measured weekly, and doses were readjusted based on the current body weight. Urine and blood samples were collected prior to treatment and at week 2 and 4 of treatment. Mice were terminated at week 4. Data is presented as the mean+SEM for the number of animals listed in each group.
Histological Assessment: Formalin fixed, paraffin embedded kidneys were sectioned at 3 microns and stained with hematoxylin and eosin (H&E), periodic acid-Schiff (PAS) and Masson's Trichrome for histological analysis. Slides were blindly evaluated by an experienced pathology investigator. Glomerular and tubular pathology, interstitial inflammation and interstitial fibrosis were semi-quantitatively scored on a scale of 0-4 as follows: 0=normal; 1=mild; 2=moderate; 3=marked; 4=severe.
Glomerular hypertrophy was evaluated by measuring glomerular area and expressed as a mean value of 50 glomeruli per kidney. Glomerular hypertrophy is an important marker for diabetic and hypertensive-mediated chronic kidney disease. […] This finding is consistent with unchanged gene expression profile for podocyte markers (Table 2), and seems reasonable given that the disease was relatively modest.

[3] = system: deoxycorticosterone acetate (DOCA)/salt-induced model of FSGS; assay: DOCA salt study: urinary isoprostane and tetranor-PGDM by LC-MS; format: in vivo, mice (129/sv strain); settings: DOCA/salt mice
Method: as §1, §2
Isoprostanes are a unique series of prostaglandin-like compounds formed in vivo via a non-enzymatic mechanism involving the free radical-initiated peroxidation of arachidonic acid. It has been shown that 8-iso-PGF2a (15-F2t-isoprostane) is the isoprostane that correlates best with increasing oxidative stress. Therefore, to assess the effect of treatment on oxidative stress, this isoform was measured using LC-MS. Also measured was tetranor-PGDM, a urinary metabolite of prostaglandin D2. […] On the other hand, elevated tetranor-PGDM was lowered with treatment of 10-nitro-9(E)-octadec-9-enoic acid and enalapril at the end time point (FIG. 18).

[4] = system: healthy male subjects; assay: Pharmacokinetic interaction study in healthy males: safety and tolerability; format: in vivo, human; settings: healthy males
Method: Safety and tolerability was evaluated throughout the study. The timing of discharge was determined by the Investigator or designee based on safety and tolerability assessment. On dosing days, subjects remained in the research unit for a minimum of 1 h after dosing prior to discharge. On Day 4, on the first day of 10-nitro-9(E)-octadec-9-enoic acid dosing, subjects remained in the unit for 4 to 6 h after dosing prior to discharge to assess safety and tolerability.
Safety and PK assessments were evaluated throughout the study. During the in-house portion of the study, urine was collected over the 24-h period on Day 2 and Day 12.
Safety was evaluated by physical examinations; adverse events (AEs); vital signs (blood pressure, heart rate, respiratory rate); clinical laboratory values (hematology, biochemistry, and urinalysis), specifically, serum Mg and CPK and electrocardiograms (ECGs).
Triplicate ECGs were obtained just prior to the start of dosing on Day 1 and single ECGs were obtained at all other time points. The average of the 3 ECG interval measurements at the pre-dose time point was considered as baseline. All 12-Lead ECGs were obtained after the subject has rested in a fully supine position for at least 10 minutes. There were no clinically significant abnormalities reported on any electrocardiogram (ECG) parameter. There were no QT/QTcF interval prolongations observed during the study.

[5] = system: deoxycorticosterone acetate (DOCA)/salt-induced model of FSGS; assay: DOCA salt study: RT-PCR analysis of kidney gene expression; format: in vivo, mice (129/sv strain); settings: DOCA/salt mice kidney; for Nephrin gene expression / Podocin gene expression: normalized to 18S, fold changes to control group, mean ± SEM; for gene expression of MCP-1, osteopontin, collagen III, fibronectin and PAI-1 (mRNA, qRT-PCR): 4 weeks
Method: as §1, §2
RT-PCR Analysis of Gene Expression: A slice of kidney from each mouse was placed in Trizol solution (Invitrogen) immediately after harvesting and stored at −80° C. until analysis. Tissues were homogenized using a bead mill in 0.5 ml of Trizol solution and total RNA was extracted with chloroform (Sigma) and purified using standard RNeasy mini kit (Qiagen), with on column DNase 1 (Qiagen) digestion to avoid non-specific fluorescence emission derived from the recognition of contaminating genomic DNA by the probe, according to manufacturer's recommendation. RNA samples were eluted in 30 μl of nuclease-free water and quantified using a Nanodrop. cDNA was generated from 2 μg of RNA by using Clontech Sprint PowerScript reagents according to manufacturer's protocol. Fluorogenic probes specific for genes assayed in the report were purchased from Applied Biosystems. PCR amplification and analysis of PCR reaction were performed and monitored using an ABI Prism 7900HT Sequence Detection System (TaqMan, Perkin-Elmer Applied Biosystem). Data analysis was carried out by using the Sequence Detection Systems v2.3 program (Applied Biosystems). For each cDNA sample the Ct value of each target sequence was normalized to reference gene (Ribosomal RNA-18S), and shown as fold changes to control group. Statistical analyses for gene expression data was performed using a two-tailed Student's t-test.

CCCCCCCC/C(=C\CCCCCCCC(=O)O)[N+](=O)[O-] [CXA-10, 10-nitro-9(E)-octadec-9-enoic acid]
podocyte number [1]: increase in podocyte number | glomerulosclerosis: average scores and percent of glomerular damage (sclerosis) ([2]; both doses (2.5 and 12.5 mg/kg p.o. QD)): significantly reduced | glomerular hypertrophy (glomerular area, mean of 50 glomeruli per kidney) ([2]; high dose 12.5 mg/kg p.o. QD): did not have an effect | tubulointerstitial lesions ([2]; high dose 12.5 mg/kg p.o. QD): only slightly | glomerular hypertrophy (glomerular area, mean of 50 glomeruli per kidney) ([2]; low dose 2.5 mg/kg p.o. QD): reduced | tubulointerstitial lesions ([2]; low dose 2.5 mg/kg p.o. QD): improved | urinary tetranor-PGDM ([3]; end time point): lowered | urinary 8-iso-PGF2a, compared with the high dose or enalapril ([3]; low dose 2.5 mg/kg, not statistically significant): trended to have a greater reduction | GI AEs related to 10-nitro-9(E)-octadec-9-enoic acid ([4]; 150 mg daily with food): not observed | serum creatinine levels ([4]; 150 mg daily): no changes | 24-hour urine creatinine excretion measurements ([4]; 150 mg daily, Day 2 versus Day 12): nor any relevant changes | Nephrin gene expression ([5]; 2.5 mpk): 1.264 ± 0.0789 | Podocin gene expression ([5]; 2.5 mpk): 1.077 ± 0.123 | Nephrin gene expression ([5]; 12.5 mpk): 1.313 ± 0.15 | Podocin gene expression ([5]; 12.5 mpk): 1.117 ± 0.084 | gene expression of MCP-1, osteopontin, collagen III, fibronectin and PAI-1 (mRNA, qRT-PCR) ([5]; high dose 12.5 mg/kg p.o. QD): neither the high dose 10-nitro-9(E)-octadec-9-enoic acid nor enalapril had an effect | gene expression of MCP-1, osteopontin, collagen III, fibronectin and PAI-1 (mRNA, qRT-PCR) ([5]; low dose 2.5 mg/kg p.o. QD): inhibited these genes
